# According to PMC12040169 (PLOS Biology, 2025):
# Assay: in vitro
# Settings: human, hela cells, % viability
row,SMILES,"viability at 28.5 h, 10 µM [%]"
1,COC(=O)C(=O)N1CC[C@H]2NC(=O)N(Cc3ccccc3)C(=O)[C@H]21 [CBK289292],98.6
2,CS(=O)(=O)c1ccc(CN2CCOC[C@H]2c2nc(-c3ccc(F)cc3)c[nH]2)cc1 [CBK289295],89.4
3,COc1ccc(-c2c[nH]c([C@@H]3COCCN3Cc3csnn3)n2)cc1 [CBK289297],97.5
4,COc1ccc(-c2c[nH]c([C@@H]3COCCN3Cc3cccc(C#N)c3)n2)cc1 [CBK289298],96
5,CS(=O)(=O)c1ccc(-c2c[nH]c([C@@H]3COCCN3Cc3ccccc3)n2)cc1 [CBK289300],83.1
6,Cc1ccc(-c2c[nH]c([C@@H]3COCCN3Cc3csnn3)n2)cc1 [CBK289302],91.4
7,FC(F)(F)Oc1ccc(-c2c[nH]c([C@@H]3COCCN3Cc3c[nH]cn3)n2)cc1 [CBK289303],111
8,O=C(O)c1ccc(CN2CCOC[C@H]2c2nc(-c3ccc(F)cc3)c[nH]2)cc1 [CBK289304],91.2
9,Clc1ccc(-c2c[nH]c([C@@H]3COCCN3Cc3csnn3)n2)cc1 [CBK289309],87.1
10,CCNC(=O)N[C@H]1C[C@@H](Cc2cc(CN(C)C)on2)C1(C)C [CBK289310],105
11,CN(C)Cc1cc(C[C@@H]2C[C@H](NC(=O)c3ccnc(Cl)c3)C2(C)C)no1 [CBK289311],89.6
12,FC(F)(F)Oc1ccc(-c2c[nH]c([C@@H]3COCCN3C3CCNCC3)n2)cc1 [CBK289312],97.8
13,OCc1cc(CC2(NCc3cccc4c3OCO4)COC2)no1 [CBK289314],90.6
14,Clc1ccc(-c2c[nH]c([C@@H]3COCCN3Cc3c[nH]cn3)n2)cc1 [CBK289316],105
15,FC(F)(F)c1ccc(-c2c[nH]c([C@@H]3COCCN3Cc3csnn3)n2)cc1 [CBK289318],92.2
16,c1cncc(CN2CCOC[C@H]2c2nc(-c3cccnc3)c[nH]2)c1 [CBK289323],86.3
17,O=C1N[C@@H]2CCN(C(=O)C3CC3)[C@@H]2C(=O)N1c1ccc(F)cc1 [CBK289324],99.6
18,CC(C)(C)C(=O)N1CC[C@H]2NC(=O)N(c3ccc(F)cc3)C(=O)[C@H]21 [CBK289328],86.4
19,O=C(O)CCC(=O)N1CC[C@H]2NC(=O)N(c3ccc(F)cc3)C(=O)[C@H]21 [CBK289329],103
20,O=C(N[C@H]1CCN2C(=O)c3cc(-c4ccc5c(c4)OCO5)ccc3NC(=O)[C@H]12)C1CCCC1 [CBK289333],103
21,O=C(N[C@H]1CCN2C(=O)c3cc(Br)ccc3NC(=O)[C@H]12)c1cccc(F)c1 [CBK289334],82.3
22,O=C(N[C@H]1CCN2C(=O)c3cc(-c4cccs4)ccc3NC(=O)[C@H]12)c1cccs1 [CBK289336],91.8
23,O=C(N[C@H]1CCN2C(=O)c3cc(-c4cccs4)ccc3NC(=O)[C@H]12)c1cnccn1 [CBK289337],116
24,O=C(N[C@H]1CCN2C(=O)c3cc(-c4ccsc4)ccc3NC(=O)[C@H]12)c1cccc(F)c1 [CBK289339],92.6
25,O=C1Nc2cc(Cl)ccc2C(=O)N2CC[C@H](NC(=O)N3CCOCC3)[C@@H]12 [CBK289340],87.7
26,O=C1Nc2cc(Cl)ccc2C(=O)N2CC[C@H](NS(=O)(=O)c3cccs3)[C@@H]12 [CBK289341],108
27,O=C(O)COCC(=O)N[C@H]1CCN2C(=O)c3ccc(Cl)cc3NC(=O)[C@H]12 [CBK289342],90

row,SMILES,"viability at 28.5 h, 10 µM [%]"
1,O=C1Nc2ccc(/C=C/c3ccccc3)cc2C(=O)N2CC[C@H](NC(=O)N3CCOCC3)[C@@H]12 [CBK289344],98.1
2,CC(C)NC(=O)N[C@H]1CCN2C(=O)c3cc(-c4ccc(F)cc4F)ccc3NC(=O)[C@H]12 [CBK289346],86.8
3,Cc1cccc(-c2ccc3c(c2)C(=O)N2CC[C@H](NC(=O)c4cnccn4)[C@H]2C(=O)N3)c1C [CBK289348],87.2
4,O=C(N[C@H]1CCN2C(=O)c3cc(-c4ccccc4)ccc3NC(=O)[C@H]12)C1CCCC1 [CBK289349],91.6
5,O=C(N[C@H]1CCN2C(=O)c3cc(-c4ccccc4)ccc3NC(=O)[C@H]12)c1cccs1 [CBK289350],85.9
6,CC(C)(C)CC(=O)N[C@H]1C[C@H]2C(=O)Nc3ccccc3C(=O)N2C1 [CBK289352],96.2
7,COCC(=O)N[C@H]1C[C@H]2C(=O)Nc3ccccc3C(=O)N2C1 [CBK289353],91.7
8,O=C(N[C@H]1C[C@H]2C(=O)Nc3ccccc3C(=O)N2C1)c1ccccc1 [CBK289354],103
9,COc1ccc(C(=O)N[C@H]2C[C@H]3C(=O)Nc4ccccc4C(=O)N3C2)cc1 [CBK289355],84.7
10,CS(=O)(=O)N[C@H]1C[C@H]2C(=O)Nc3ccc(-c4cccs4)cc3C(=O)N2C1 [CBK289359],95.7
11,COCC(=O)N[C@H]1C[C@H]2C(=O)Nc3ccc(-c4ccsc4)cc3C(=O)N2C1 [CBK289360],96.6
12,O=C(N[C@H]1C[C@H]2C(=O)Nc3ccc(-c4ccsc4)cc3C(=O)N2C1)c1ccccc1 [CBK289361],91
13,CC(C)NC(=O)N1CC[C@H](c2nc3ncccc3[nH]2)C1 [CBK289369],101
14,Cc1ccc2oc([C@H]3CCN(S(C)(=O)=O)C3)nc2c1 [CBK289371],97.2
15,O=C(NC1CCCCC1)N1CC[C@H](c2nc3ccccc3o2)C1 [CBK289372],88.4
16,CS(=O)(=O)N1CC[C@H](c2nc3ccccc3s2)C1 [CBK289374],77.8
17,Cc1ccc2[nH]c([C@H]3CCN(C(=O)NC(C)C)C3)nc2c1 [CBK289375],90.8
18,O=C(c1cncnc1)N1CC[C@H](c2nc3cc(F)ccc3[nH]2)C1 [CBK289376],96.8
19,COc1ccc2[nH]c([C@H]3CCN(S(C)(=O)=O)C3)nc2c1 [CBK289377],111
20,N#Cc1ccc2nc([C@H]3CCN(C(=O)c4ccccc4)C3)[nH]c2c1 [CBK289379],92.4
21,N#Cc1ccc2nc([C@H]3CCN(C(=O)C4CCCCC4)C3)[nH]c2c1 [CBK289380],90
22,CCS(=O)(=O)c1ccc2oc([C@H]3CCN(S(=O)(=O)c4ccccc4)C3)nc2c1 [CBK289382],88.2
23,CN1CC[C@H](c2nc3ncccc3[nH]2)C1 [CBK289384],76.8
24,CS(=O)(=O)c1ccc(CN2CC[C@H](c3nc4ncccc4[nH]3)C2)cc1 [CBK289385],101
25,Cc1ccc2oc([C@H]3CCN(Cc4ccc(C(=O)O)cc4)C3)nc2c1 [CBK289386],100
26,c1ccc2sc([C@H]3CCNC3)nc2c1 [CBK289389],91.2
27,Cc1nnc([C@H]2CCN(Cc3ccc(F)cc3)C2)o1 [CBK289391],88.4

row,SMILES,"viability at 28.5 h, 10 µM [%]"
1,Cc1nnc([C@H]2CCN(Cc3ccc4c(c3)OCO4)C2)o1 [CBK289392],111
2,N#Cc1cccc(CN2CC[C@H](c3nnc(-c4ccco4)o3)C2)c1 [CBK289394],92.5
3,CC(=O)N1CCC(N2CC[C@H](c3nnc(-c4ccco4)o3)C2)CC1 [CBK289395],86.9
4,c1ccc(CN2CC[C@H](c3nnc(-c4cccnc4)o3)C2)cc1 [CBK289397],85.6
5,c1cncc(-c2nnc([C@H]3CCN(C4CCOCC4)C3)o2)c1 [CBK289398],93.5
6,COc1ccc(-c2nnc([C@H]3CCN(Cc4cccc(C#N)c4)C3)o2)cc1 [CBK289400],94.8
7,COc1ccc(-c2nnc([C@H]3CCN(Cc4ccccn4)C3)o2)cc1 [CBK289401],93.4
8,CC(=O)N1CCC(N2CC[C@H](c3nnc(C(C)(C)C)o3)C2)CC1 [CBK289404],82.4
9,Cc1ccc(S(=O)(=O)N2CC[C@H](c3nnc(-c4ccccc4)o3)C2)cc1 [CBK289405],111
10,CC(C)(C)c1nnc([C@H]2CCN(C(=O)CCC(=O)O)C2)o1 [CBK289406],96.1
11,CN(C)c1ccc(-c2nnc([C@H]3CCN(C(=O)c4ccccc4)C3)o2)cc1 [CBK289407],85.7
12,COCC(=O)N1CC[C@H](c2nnc(-c3ccc(C)cc3)o2)C1 [CBK289410],114
13,Cc1ccc(-c2nnc([C@H]3CCN(C(=O)NCc4ccccc4)C3)o2)cc1 [CBK289411],93
14,O=C(C1CCCCC1)N1CC[C@H](c2nnc(-c3cccnc3)o2)C1 [CBK289412],103
15,CC(=O)N1CC[C@H](c2nc3cccc(C(N)=O)c3[nH]2)C1 [CBK289415],98.3
16,Cn1c([C@H]2CCN(C(=O)c3cnccn3)C2)nc2ccccc21 [CBK289416],110
17,CC(C)C[C@@H]1N[C@H](C(=O)NC2CCC2)Cc2cn(Cc3nccn3C)c3cccc1c23 [CBK289422],101
18,CC(C)C[C@@H]1N[C@H](C(=O)NC2CC2)Cc2cn(Cc3nccn3C)c3cccc1c23 [CBK289423],108
19,C#CCNC(=O)[C@@H]1Cc2cn(Cc3cc(C)on3)c3cccc(c23)[C@H](CC(C)C)N1 [CBK289426],90.4
20,CC(C)C[C@@H]1N[C@H](C(=O)NCC2CCOCC2)Cc2c[nH]c3cccc1c23 [CBK289427],103
21,C[C@@H]1C(=O)O[C@H]2[C@H]1CC[C@@]1(C)Cc3sc(NC(=O)CCC(=O)O)nc3[C@@H](C)[C@H]21 [CBK289429],98.7
22,C[C@H](C(=O)N1CCCC1)C1CC[C@@]2(C)Cc3sc(NC(=O)C4CC4)nc3[C@@H](C)[C@@H]2[C@H]1O (stereo partly shown) [CBK289432],103
23,CC(=O)N[C@H]1CC[C@]2(C)CCC([C@H](C)C(=O)NC3CCCC3)[C@H](O)[C@H]2[C@@H]1C (stereo partly shown) [CBK289436],79.6
24,COC[C@H]1CCCN1C(=O)[C@@H](C)C1CC[C@@]2(C)CC[C@H](NC(C)=O)[C@@H](C)[C@@H]2[C@H]1O (stereo partly shown) [CBK289438],110
25,CC(=O)N[C@H]1CC[C@]2(C)CCC([C@H](C)C(=O)N3CCCCC3)[C@H](O)[C@H]2[C@@H]1C (stereo partly shown) [CBK289439],89.4
